Data as given in article PMC2824606 (Molecular cell, 2010).

Target: yHsp90 (yeast Hsp90, Hsp82) (Saccharomyces cerevisiae, UniProt P02829)
Experiment: Kd determination
Assay type: binding

Sequence of yHsp90 (yeast Hsp90, Hsp82) (P02829 whole entry): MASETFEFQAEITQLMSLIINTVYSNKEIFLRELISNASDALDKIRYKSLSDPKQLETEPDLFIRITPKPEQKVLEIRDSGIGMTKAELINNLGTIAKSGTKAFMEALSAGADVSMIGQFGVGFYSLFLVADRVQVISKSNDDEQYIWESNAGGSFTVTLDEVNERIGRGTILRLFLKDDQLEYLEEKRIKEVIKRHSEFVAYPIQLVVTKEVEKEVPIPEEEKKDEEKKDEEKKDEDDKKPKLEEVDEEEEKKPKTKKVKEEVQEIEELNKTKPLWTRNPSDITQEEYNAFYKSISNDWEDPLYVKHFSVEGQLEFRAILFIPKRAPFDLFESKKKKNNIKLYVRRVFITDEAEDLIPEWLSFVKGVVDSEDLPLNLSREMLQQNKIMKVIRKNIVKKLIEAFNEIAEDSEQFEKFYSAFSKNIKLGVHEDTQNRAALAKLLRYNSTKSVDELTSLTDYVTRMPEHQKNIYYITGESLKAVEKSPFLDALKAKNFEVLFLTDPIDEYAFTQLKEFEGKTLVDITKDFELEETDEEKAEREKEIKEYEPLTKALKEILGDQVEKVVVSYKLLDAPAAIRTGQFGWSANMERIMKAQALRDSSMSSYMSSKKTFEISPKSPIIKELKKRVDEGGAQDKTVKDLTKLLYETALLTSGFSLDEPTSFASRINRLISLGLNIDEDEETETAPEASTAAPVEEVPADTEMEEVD

Question: `Nc1ncnc2c1ncn2[C@@H]1O[C@H](CO[P@](=O)(O)O[P@](=O)(O)NP(=O)(O)O)[C@@H](O)[C@H]1O` [AMPPNP] was tested. Which Kd did it give?
Answer: Kd of each protein for AMPPNP is shown in inset.
